In a melting point compilation (Tetko et al.):

Row | SMILES | melting point
1 | CCOC(=O)C(=C(C)OC(=O)c1ccccc1)c1cc(C(C(=O)OCC)=C(C)OC(=O)c2ccccc2)c([N+](=O)[O-])cc1[N+](=O)[O-] | 167 °C
2 | CC(C)(C)OC(=O)N1CCC(c2nc(C(=O)O)cs2)CC1 | 162 to 166 °C
3 | Cc1cc2ccccc2cc1CCl | 65 °C
4 | CCCOCC(=Nc1ccc(Cl)cc1C(F)(F)F)n1ccnc1 | 63.5 °C
5 | NNC(=O)c1cc2cc(OCc3ccccc3)ccc2[nH]1 | 219 to 221 °C
6 | O=S(=O)(Cl)c1cccc(S(=O)(=O)Cl)c1 | 59 °C
7 | CC1CCCC1=O (configuration not stated) | -75 °C
8 | COc1cc2c(c3oc(=O)c4c(c13)CCOC4=O)C1C=COC1O2 (configuration not stated) | 245 °C
9 | O=c1c(N2CCCC2)c(N2CCOCC2)c1=O | 251 to 254 °C
10 | CC12CCC(C(=CCC=C3C(=O)C4(C)CCC3C4(C)C)C1=O)C2(C)C | 265 to 267 °C
11 | C=CC(=O)NCO | 74.5 °C
12 | O=C(CBr)c1cccc2c1OCCO2 | 71 to 72 °C
13 | Cc1n[nH]c(C)c1N | 192 °C
14 | Cc1ccc(F)cc1N | 39 °C
15 | FC(F)(F)c1cccc(Cl)c1 | -56 °C
16 | NNc1ncc(C(F)(F)F)cc1Cl | 90 to 92 °C
17 | O=C(Nc1ccc([N+](=O)[O-])cc1Cl)C1(F)C(F)(F)C(F)(F)C(F)(F)C(F)(F)C1(F)F | 93 °C
18 | Cc1n[nH]c(C)c1Br | 121 °C
19 | COC(=O)CCc1ccc(O)cc1 | 37 to 41 °C
20 | NNC(=S)NCCN1CCCCC1 | 121 to 123 °C
21 | COC(=O)c1ccc(C(N)=NO)cc1 | 167 to 168 °C
22 | Nc1cnccc1C(=O)O | 287 to 291 °C
23 | CC(CN1CC(=O)NC(=O)C1)N1CC(=O)NC(=O)C1 (configuration not stated) | 238 °C

Row | SMILES | melting point
24 | O=C1c2ccc(O)cc2C(=O)c2cc(O)ccc21 | 354 °C
25 | O=S(=O)(O)CS(=O)(=O)O | 98 °C
26 | O=[N+]([O-])c1ccc(N=C=Nc2ccc([N+](=O)[O-])cc2)cc1 | 166 to 168 °C
27 | Cc1cc(CCl)nn1C | 63 to 66 °C
28 | COC(=O)Nc1nc2cc(C(=O)c3ccc(F)cc3)ccc2[nH]1 | 260 °C
29 | N#Cc1sccc1Br | 49 °C
30 | c1ccc2c(Oc3cccc4ccccc34)cccc2c1 | 110 °C
31 | CCCc1cccc(C)c1 | -82.5 °C
32 | O=C(O)c1c(O)cccc1F | 160 °C
33 | CC(CCCO)C1CCC2C3CCC4CCCCC4(C)C3CCC12C (configuration not stated) | 130 °C
34 | CCc1ccsc1 | -89.1 °C
35 | Cc1nc([N+](=O)[O-])c(Br)[nH]1 | 256 to 257 °C
36 | COCCOc1ccc(CCC(=O)O)cc1N | 93.5 to 98 °C
37 | Cc1nn(C)c2sc(C(=O)O)cc12 | 260 °C
38 | CNCCc1c[nH]c2ccccc12 | 88 °C
39 | COc1ccc2c(c1C)CC2C#N (configuration not stated) | 80 °C
40 | COc1ccc(C=CC(=O)O)c(Cl)c1OC | 217 to 218 °C
41 | COc1ncc(F)c2nc(S(=O)(=O)Nc3c(F)cccc3F)nn12 | 194 °C
42 | COc1cc(C(=O)c2ccc(Cl)cc2Cl)c([N+](=O)[O-])cc1OC | 114 °C
43 | CC12CCC(c3c(Br)cc(=O)oc31)C2(C)C (configuration not stated) | 105 °C
44 | NC(=O)CF | 108 °C
45 | Cc1ccc(S(=O)(=O)OC2CCC3(C)C(CCC4C5CCCC5(C)CCC43)C2)cc1 (configuration not stated) | 129 to 131 °C
46 | NC(=O)[C@@H]1CCCC[C@@H]1O (relative stereo) | 115 to 119 °C

Row | SMILES | melting point
47 | O=C1NCNC1(c1ccccc1)c1ccccc1 | 183 °C
48 | Cc1onc(-c2c(Cl)cccc2Cl)c1C(N)=S | 173 to 176 °C
49 | COc1c(F)cc(Br)cc1[N+](=O)[O-] | 55 °C
50 | Cc1cc(C)c(N=C=O)c(C)c1 | 44.5 °C
51 | CC(=O)c1cc(C(C)=O)c(O)cc1O | 180 °C
52 | O=C1c2ccccc2S(=O)(=O)N1Cl | 148 to 151 °C
53 | NC(Cc1ccc(F)c(F)c1)C(=O)O (racemic) | 237 to 240 °C
54 | O=C1CC(c2ccccc2)c2ccccc21 (configuration not stated) | 77 °C
55 | COc1ccc(Br)c(C)c1C(=O)O | 163 °C
56 | CCCCCCCCNC | -11 °C
57 | CCCCc1ccc(/N=N/c2ccc(OC)cc2)cc1 | 31 to 48 °C
58 | CC(CCC(=O)O)C1CCC2C3CCC4CC(O)CCC4(C)C3CCC12C (configuration not stated) | 186 °C
59 | CCOC(=O)c1nc(C(Cl)(Cl)Cl)n(-c2ccc(Cl)cc2Cl)n1 | 110 °C
60 | Fc1ccccc1C1=NCC(=S)N(CC(F)(F)F)c2ccc(Cl)cc21 | 138 °C
61 | CCOc1ccc(-c2nnc3n2NC(c2ccc(N(C)C)cc2)S3)cc1 (configuration not stated) | 137 °C
62 | COc1ccccc1-c1ccc(C=CC(=O)c2ccco2)o1 | 96 to 98 °C
63 | CC12CCC(C(CO)C1=O)C2(C)C (configuration not stated) | 138 °C
64 | C1CSC2=C(S1)SC(=C1SC3=C(SCCS3)S1)S2 | 244 °C
65 | Cn1c(/C(C#N)=N/Nc2cc(Cl)ccc2Cl)nc2ccccc21 | 245 °C
66 | Cc1ccc(S(=O)(=O)Nc2cc(N)c([N+](=O)[O-])cc2NS(=O)(=O)c2ccc(C)cc2)cc1 | 165 °C
67 | COc1ccc(C(=O)C=CC(=O)O)cc1 | 139 °C
68 | CC(=O)OC1C(O)C2=C(C(=O)C(OC(C)=O)C3(CC3C)C2=O)C2(C)CCC(=O)C(C)(C)C12 (configuration not stated) | 201 °C
69 | Sc1nc2cc(Cl)c(Cl)cc2[nH]1 | 300 °C

Row | SMILES | melting point
70 | NCc1ccc2sccc2c1 | 41 to 43 °C
71 | O=C1CCc2cccc(O)c2C1 | 156 to 157 °C
72 | O=C(O)c1cc(O)cc(O)c1 | 235 to 240 °C
73 | O=C1N(c2ccccc2)N(c2ccccc2/N=N\c2ccccc2)C1(c1ccccc1)c1ccccc1 | 163 °C
74 | CC(=NC#N)N(C)Cc1ccc(Cl)nc1 | 98.9 °C
75 | O[C@H]1CCC[C@@H]1O | 55 °C
76 | C=C1CCC(O)CC1=CC=C1CCCC2(C)C1CCC2C(C)C=CC(C)C(C)C (configuration not stated) | 116 °C
77 | Cn1cc(C(=O)Nc2ccc(F)cc2-c2ccc(Cl)c(Cl)c2)c(C(F)F)n1 | 147 °C
78 | N#Cc1ccc(-c2cc[nH]n2)cc1 | 141 °C
79 | Oc1ccc(F)c(Cl)c1 | 41 °C
80 | COC(=O)c1cscc1OC | 70 to 71 °C
81 | O=[N+]([O-])c1ccc(O)cc1F | 92 to 95 °C
82 | Cc1ccnc(SCC(=O)O)n1 | 192 °C
83 | NN1CCN(CCO)CC1 | 102 to 107 °C
84 | CCOC(=O)NN(C(=O)OCC)c1c(-c2ccccc2)nc2n1CCS2 | 179 to 180 °C
85 | CCOc1cc(OCC)c(C(=O)CCC(=O)O)cc1OCC | 150 °C
86 | C(=Nc1ccccc1)=Nc1ccccc1 | 169 °C
87 | Cc1ccccc1OCC(=O)O | 155 to 157 °C
88 | CC(=O)Nc1cccc(NCC(=O)c2ccccc2)c1 | 171 °C
89 | Cc1cncc(C(=O)O)c1 | 212 °C
90 | COc1ccc(-c2onc(C(=O)c3ccco3)c2S(=O)(=O)c2ccccc2)cc1 | 150 °C
91 | CCOC(=O)C=C(C)OCC | 30 °C
92 | Nc1ccc(C2=NNC(=O)CC2)cc1 | 242 to 244 °C
